Measurements: patent US20240293558A1, “KRAS INHIBITOR CONJUGATES” (Erasca, Inc., priority 2021, published 2024)
Like-named read-outs stand apart in the source and are kept apart here.

Key:
Format in all cases: cell-based
[1] = target: T1, KRAS G12D (Homo sapiens, UniProt P01116, G12D); test: Degradation of KRas G12D in AsPC-1 cells, Western blot; design: endogenous in cells; host or cells: AsPC-1 (ATCC CRL-1682); details: ASPC-1 cell line after 24 h treatment (FIG. 11); read-out: KRAS wild type degradation DC50
[2] = target: T2, WT KRAS (Homo sapiens, UniProt P01116); test: Degradation of KRAS wild type (WT) in HT-29 cells, Western blot; details: HT-29 cell line, after 24 h treatment (FIG. 12)
T2 construct: endogenous in cells; host or cells: HT-29 (ATCC HTB-38)
Protocol: This Example illustrates that embodiments of the present application degrade KRAS WT
HT-29 cells (ATCC HTB-38) expressing WT KRAS were grown in McCoy's 5a medium modified (ATCC cat #30-2007) supplemented with 10% fetal bovine serum, and Penicillin/Streptomycin. Cell were plated in 6-well tissue culture plates at a density of 1 million cells/well and allowed to attach for overnight. Diluted compounds were then added in a final concentration of 0.2% DMSO. After 24 hour treatment, the medium was removed, and the plate was washed three times with ice-cold PBS. 50ul of the RIPA cell lysis buffer (ThermoFisher 89901) supplemented with protease inhibitor (Roche 4693116001) and Phosphatase Cocktail A and B inhibitor (Bimake B15002; Bimake Houston TX) was added to each well, the adherent cells were scratched off, and transferred into pre-cold centrifuge tubes. […] The protein concentration of the supernatant was determined with bicinchoninic acid method (BCA) (ThermoFisher 23227). […]
The levels of KRAS protein were determined by Western blotting. […] The signal intensities of bands were quantified by Li-Cor Odyssey CLX.
The KRAS signals were normalized to the GAPDH signal for each lane and percent of DMSO values were calculated to determine the degradation of KRAS upon the compound treatment.

[3] = target: T1, KRAS G12D; test: Degradation of KRas G12D in AsPC-1 cells, Western blot; design: endogenous in cells; host or cells: AsPC-1 (ATCC CRL-1682)
Protocol: This Example illustrates that the compounds presented herein degrade KRAS G12D.
AsPC-1 cells (ATCC CRL-1682) expressing G12D were grown in RPMI-1640 medium supplemented with 10% fetal bovine serum, and Penicillin/Streptomycin. Cell were plated in 6-well tissue culture plates at a density of 1 million cells/well and allowed to attach for overnight. Diluted compounds were then added in a final concentration of 0.2% DMSO. After 24 hour treatment, the medium was removed, and the plate was washed three times with ice-cold PBS. 50ul of the RIPA cell lysis buffer (ThermoFisher 89901) supplemented with protease inhibitor (Roche 4693116001) and Phosphatase Cocktail A and B inhibitor (Bimake B15002; Bimake Houston TX) was added to each well, the adherent cells were scratched off, and transferred into pre-cold centrifuge tubes. After vigorous vortex, the tubes were incubated on ice for 30 minutes, centrifuged 14,000 rpm for 10 min at 4° C., and the supernatant were transferred into fresh tubes kept on ice. The protein concentration of the supernatant was determined with bicinchoninic acid method (BCA) (ThermoFisher 23227). Samples were prepared to the final concentration of 30ug in 20ul using NuPAGE LDS Sample Buffer (Invitrogen NP0007), NuPAGE Sample Reducing Agent (Invitrogen NP0009), and RIPA cell lysis buffer, and boiled at 95° C. for 15 minutes in water bath.
The levels of KRAS protein and phosphorylated ERK1/2 were determined by Western blotting. 20 μL of protein sample mixture was loaded into each well of 1.5 mm 4-12% Bis-Tris gel (Invitrogen NP0335), and run at 80V in stacking gel and 120 V in separating gel for about 2 h in MOPS running buffer (Invitrogen NP0001). The gel was transferred to the membrane (20V, 7 min) with Invitrogen iBlot2, and blocked with Li-Cor blocking buffer (LI-COR 927-60001; Li-Cor Biotechnology, Lincoln NE) for at least 1 h at room temperature. Primary antibodies diluted in the blocking buffer were added and incubated at 4° C. overnight. As the primary antibodies, KRAS (Proteintech 12063-1-AP), G12D Mutant Specific KRAS (Cell Signaling Technology 14429S), ERKI1/2 (Cell Signaling Technology 4695S), Phospho-ERKI1/2 (Cell Signaling Technology 4370S), and GAPDH (Millipore MAB374) were used. The membrane was washed 4 times with TBST (0.10% Tween20®; ThermoFisher 28360) for 5 minutes at room temperature, then incubated with Li-Cor anti-rabbit-800 (LI-COR 926-68070) and anti-mouse-680 (LI-COR-926-32211) diluted in Li-Cor blocking buffer with the ratio of 1:15,000 to visualize the primary antibodies for 1 hour at room temperature. Then membrane was washed 4 times with TBST (0.1% Tween20) 5 minutes. The signal intensities of bands were quantified by Li-Cor Odyssey CLX.
The KRas and phosphor-ERK1/2 signals were normalized to the GAPDH signal for each lane and percent of DMSO values were calculated to determine the degradation of KRas and the inhibition of ERK1/2 phosphorylation upon the compound treatment.

T1 sequence (P01116 1-188 isoform P01116-2 G12D): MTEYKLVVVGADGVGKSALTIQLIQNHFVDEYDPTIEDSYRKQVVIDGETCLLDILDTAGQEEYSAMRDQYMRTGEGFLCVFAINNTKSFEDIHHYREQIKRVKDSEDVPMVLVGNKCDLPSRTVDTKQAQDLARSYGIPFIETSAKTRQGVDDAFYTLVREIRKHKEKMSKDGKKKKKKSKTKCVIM
T2 sequence (P01116 1-188 isoform P01116-2): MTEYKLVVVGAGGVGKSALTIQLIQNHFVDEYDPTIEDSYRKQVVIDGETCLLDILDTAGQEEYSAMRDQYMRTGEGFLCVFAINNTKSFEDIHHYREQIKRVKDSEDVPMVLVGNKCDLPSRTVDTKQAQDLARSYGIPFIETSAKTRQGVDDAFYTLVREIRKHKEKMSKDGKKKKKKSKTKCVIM

Row | DC50 [1] | DC50 [2] | SMILES | Dmax ([3]; ASPC1, AsPc-1 cell line after 24 h treatment) | KRAS G12D degradation (Western blot), result in words ([3]; AsPC-1 cells, FIGS. 1-5) | DC50 ([3]; AsPc-1 cell line after 24 h treatment)
1 | 8.2 nM | 426 nM | C[C@H](NC(=O)[C@@H]1C[C@@H](O)CN1C(=O)[C@@H](NC(=O)CCOCCCN1CCC[C@H]1COc1nc(N2CC3CCC(C2)N3)c2cc(C(F)(F)F)c(-c3ccc(F)c4sc(N)c(C#N)c34)c(F)c2n1)C(C)(C)C)c1ccc(-c2c(F)cccc2F)cc1 (single isomer, unassigned) [Example 20] |  |  | 
2 |  |  | Cc1ncsc1-c1ccc([C@H](C)NC(=O)[C@@H]2C[C@@H](O)CN2C(=O)[C@@H](NC(=O)CCOCCCN2CCCC2COc2nc(N3CC4CCC(C3)N4)c3cc(Cl)c(-c4ccc(F)c5sc(N)c(C#N)c45)c(F)c3n2)C(C)(C)C)cc1 (stereo partly drawn) [Example 8, (2S,4R)-1-[(2S)-2-[3-[3-[2-[[7-(2-amino-3-cyano-7-fluoro-benzothiophen-4-yl)-6-chloro-4-(3,8-diazabicyclo[3.2.1]octan-3-yl)-8-fluoro-quinazolin-2-yl]oxymethyl]pyrrolidin-1-yl]propoxy]propanoylamino]-3,3-dimethyl-butanoyl]-4-hydroxy-N-[(1S)-1-[4-(4-methylthiazol-5-yl)phenyl]ethyl]pyrrolidine-2-carboxamide] | 95% | Favorable results | 71 nM
